How the values were obtained:
A431 (EGFR WT) cells = assay: Antiproliferative activity against A431 (EGFR WT) cells, Cell Titer Glow; assay type: cell-based; conditions: Homo sapiens, A-431, 72 h; three days after addition of compounds; read-out: Antiproliferative activity A431 wild-type (WT) IC50
Description: (§1) Antiproliferative Activity of the Compounds Disclosed Herein Against Ba/F3 (EGFR^del19/T790M/C797S) Triple-Mutant Cells and A431 (EGFR WT) Cells
(§2) • 3000 Ba/F3 cells carrying EGFR (del19/T790M/C797S) or 2000 A431 cells were seeded in a 384-well plate. After one day, serially diluted compounds were added (up to 500 nM for Ba/F3 cells and up to 10 μM for A431 cells). Three days after the addition of the compounds, Cell Titer Glow was added to evaluate cell growth and the percentage cell growth inhibition by the compounds and the IC50 values were calculated.

EGFR (del19/T790M/C797S) = assay: HTRF inhibitory activity assay against EGFR (del19/T790M/C797S) enzyme; assay type: biochemical
How it was run: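 Wild-type or mutant EGFR preincubated with serially diluted compound 10 min at 28 °C, then reacted 40 min at room temperature with biotinylated TK substrate and ATP. Phosphorylation detected by HTRF (Eu-cryptate anti-TK antibody, streptavidin-XL665, 60 min), 665/615 nm ratio; % inhibition and IC50 vs control.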

[1] = target: Ba/F3 (EGFR^del19/T790M/C797S) triple-mutant cells (Homo sapiens, UniProt P00533, T790M/C797S, cells depend on it, form not given); assay: Antiproliferative activity against Ba/F3 (EGFR del19/T790M/C797S) triple-mutant cells, Cell Titer Glow; assay type: cell-based; conditions: three days after addition of compounds; read-out: Antiproliferative activity BaF3(EGFR^del19/T790M/C797S) IC50
Ba/F3 (EGFR^del19/T790M/C797S) triple-mutant cells, sequence (P00533 with tags, fused parts or gaps DEL746-750/T790M/C797S, form open): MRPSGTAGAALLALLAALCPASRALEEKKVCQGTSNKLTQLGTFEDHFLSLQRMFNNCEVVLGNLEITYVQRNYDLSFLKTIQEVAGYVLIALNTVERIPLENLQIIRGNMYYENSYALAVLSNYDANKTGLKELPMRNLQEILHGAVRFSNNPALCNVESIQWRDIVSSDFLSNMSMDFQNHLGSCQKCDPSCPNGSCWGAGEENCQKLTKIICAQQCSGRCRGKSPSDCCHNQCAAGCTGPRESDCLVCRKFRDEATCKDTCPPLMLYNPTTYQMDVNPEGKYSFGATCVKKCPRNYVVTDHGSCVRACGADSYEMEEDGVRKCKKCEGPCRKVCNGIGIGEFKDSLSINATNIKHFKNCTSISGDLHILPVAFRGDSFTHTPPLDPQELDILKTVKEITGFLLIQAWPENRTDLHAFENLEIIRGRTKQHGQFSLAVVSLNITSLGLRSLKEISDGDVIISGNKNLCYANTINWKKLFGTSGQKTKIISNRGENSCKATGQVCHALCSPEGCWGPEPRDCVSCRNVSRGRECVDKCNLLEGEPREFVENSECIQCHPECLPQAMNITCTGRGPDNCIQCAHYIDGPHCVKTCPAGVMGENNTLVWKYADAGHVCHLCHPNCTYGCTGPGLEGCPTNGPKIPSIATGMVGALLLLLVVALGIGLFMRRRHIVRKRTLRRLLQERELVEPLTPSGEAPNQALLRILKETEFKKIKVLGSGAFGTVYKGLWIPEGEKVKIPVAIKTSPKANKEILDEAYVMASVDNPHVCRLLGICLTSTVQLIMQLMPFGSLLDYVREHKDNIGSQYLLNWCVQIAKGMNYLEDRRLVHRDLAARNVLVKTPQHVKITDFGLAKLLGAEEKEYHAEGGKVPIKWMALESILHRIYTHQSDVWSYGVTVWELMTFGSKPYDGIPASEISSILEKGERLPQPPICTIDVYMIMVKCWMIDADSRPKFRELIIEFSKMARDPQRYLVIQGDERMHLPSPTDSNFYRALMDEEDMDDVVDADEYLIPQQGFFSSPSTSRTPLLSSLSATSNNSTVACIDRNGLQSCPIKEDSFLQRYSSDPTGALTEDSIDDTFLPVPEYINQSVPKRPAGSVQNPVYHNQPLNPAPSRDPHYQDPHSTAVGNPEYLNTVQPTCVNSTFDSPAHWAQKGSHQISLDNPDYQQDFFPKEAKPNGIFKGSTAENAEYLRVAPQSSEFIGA
Description: as §1, §2

EGFR (L858R/T790M/C797S) = EGFR (L858R/T790M/C797S) (Homo sapiens, UniProt P00533, C797S/L858R/T790M); assay: HTRF inhibitory activity assay against EGFR (L858R/T790M/C797S) enzyme; assay type: biochemical; conditions: read-out: EGFR (L858R/T790M/C797S) inhibition (%) (0.3 nM compound)
EGFR (L858R/T790M/C797S), sequence (P00533 25-1210 T790M/C797S/L858R): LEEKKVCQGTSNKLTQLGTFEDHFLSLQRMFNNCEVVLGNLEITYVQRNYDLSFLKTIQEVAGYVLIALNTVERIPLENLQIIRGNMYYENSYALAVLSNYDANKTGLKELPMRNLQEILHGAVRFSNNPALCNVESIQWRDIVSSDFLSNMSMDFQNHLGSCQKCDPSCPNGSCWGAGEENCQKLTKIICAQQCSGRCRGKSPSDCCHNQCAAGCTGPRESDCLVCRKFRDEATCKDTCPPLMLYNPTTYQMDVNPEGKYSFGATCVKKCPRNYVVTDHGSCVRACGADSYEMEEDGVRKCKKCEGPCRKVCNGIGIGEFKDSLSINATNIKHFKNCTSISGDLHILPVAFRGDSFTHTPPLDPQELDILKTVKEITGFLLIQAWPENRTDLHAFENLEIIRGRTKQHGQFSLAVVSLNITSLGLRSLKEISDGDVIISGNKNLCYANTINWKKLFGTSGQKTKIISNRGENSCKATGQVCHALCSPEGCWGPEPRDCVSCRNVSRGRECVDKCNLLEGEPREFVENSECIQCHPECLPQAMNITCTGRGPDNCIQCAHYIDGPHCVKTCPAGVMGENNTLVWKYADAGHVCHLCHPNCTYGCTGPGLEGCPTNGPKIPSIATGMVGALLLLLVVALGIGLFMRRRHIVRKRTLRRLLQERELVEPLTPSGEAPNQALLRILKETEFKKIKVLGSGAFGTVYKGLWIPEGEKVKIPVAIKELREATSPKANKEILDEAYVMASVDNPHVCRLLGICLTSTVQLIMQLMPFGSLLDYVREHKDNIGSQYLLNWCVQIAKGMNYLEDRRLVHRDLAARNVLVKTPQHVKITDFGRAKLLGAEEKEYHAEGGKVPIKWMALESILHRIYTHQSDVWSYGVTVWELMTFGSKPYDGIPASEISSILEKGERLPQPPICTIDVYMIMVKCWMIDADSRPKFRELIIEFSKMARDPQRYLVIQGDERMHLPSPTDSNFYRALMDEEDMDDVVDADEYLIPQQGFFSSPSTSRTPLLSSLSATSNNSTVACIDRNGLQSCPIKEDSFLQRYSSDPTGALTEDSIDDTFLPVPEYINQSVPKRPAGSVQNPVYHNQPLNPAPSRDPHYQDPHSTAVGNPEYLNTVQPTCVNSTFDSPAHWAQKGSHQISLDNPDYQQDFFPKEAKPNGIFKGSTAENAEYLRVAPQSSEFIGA
Description: Inhibitory Activity Assay of the Compounds Disclosed Herein Against EGFR (del19/T790M/C797S), EGFR (L858R/T790M/C797S) or EGFR (WT) Enzymes
The inhibitory effects of the compounds against EGFR (del19/T790M/C797S), EGFR (L858R/T790M/C797S) or EGFR (WT) enzyme activity was determined by using HTRF. The procedures are as follows:
The WT or mutant EGFR proteins were incubated with a serially diluted compounds at 28° C. for 10 min followed by addition of biotin-labeled general tyrosine kinase (TK) substrate and ATP. The mixture was incubated at room temperature for 40 min for reaction. After the termination of the reaction, an Eu3+-Cryptate-labeled antibody against TK and streptavidin-XL665 were added and the mixture was incubated at room temperature for 60 min. The luminescences at 615 nm and 665 nm were detected and the ratio of 665/615 was calculated to quantify the level of TK substrate phosphorylation. Inhibition % and IC50 of the compounds were calculated relative to the control group.

| Structure (SMILES) | IC50 (A431 (EGFR WT) cells) | EGFR (del19/T790M/C797S) inhibition (%) (0.3 nM compound) (EGFR (del19/T790M/C797S)) | GI50 [1] | inhibition at 0.0003 µM (EGFR (L858R/T790M/C797S)) |
| --- | --- | --- | --- | --- |
| CN1CCN(C2CCN(c3ccc(Nc4nc(N[C@H]5C[C@@H](O)C5)c(-c5ccccc5)nc4C(N)=O)cc3)CC2)CC1 [compound 31] | 540 nM | +++ (+++ indicates an inhibition greater than 50%.) | 65 nM | – |
| CN1CCN(C2CCN(c3ccc(Nc4nc(N[C@H]5C[C@H](O)C5)c(-c5ccccc5)nc4C(N)=O)cc3)CC2)CC1 [compound 32] | 190 nM | +++ (+++ indicates an inhibition greater than 50%.) | 26 nM | – |
| CN1CCN(C2CCN(c3ccc(Nc4nc(NC5CCOCC5)c(-c5cccnc5)nc4C(N)=O)cc3)CC2)CC1 [compound 37] | > 2000 nM | + (+ indicates an inhibition less than or equal to 20%) | 48 nM | – |
| CN1CCN(C2CCN(c3ccc(Nc4nc(NCCS(C)(=O)=O)c(-c5ccccc5)nc4C(N)=O)cc3)CC2)CC1 [compound 54] | 3500 nM | + (+ indicates an inhibition less than or equal to 20%) | > 100 nM | – |
| CN1CCN(C2CCN(c3ccc(Nc4nc(NC5CCOCC5)c(-c5cccc(F)c5)nc4C(N)=O)cc3)CC2)CC1 [compound 60] | – | ++ (++ indicates an inhibition from 20% to 50%) | – | ≤ 20% |
| CN1CCN(C2CCN(c3ccc(Nc4nc(NC5CCOCC5)c(-c5ccco5)nc4C(N)=O)cc3)CC2)CC1 [compound 69] | – | + (+ indicates an inhibition less than or equal to 20%) | – | ≤ 20% |
| CN1CCN(C2CCN(c3ccc(Nc4nc(NC5CCOCC5)c(-c5cccs5)nc4C(N)=O)cc3)CC2)CC1 [compound 94] | – | ++ (++ indicates an inhibition from 20% to 50%) | – | ≤ 20% |
| CN1CCN(C2CCN(c3ccc(Nc4nc(NC5CCOCC5)c(-c5ccc(O)cc5)nc4C(N)=O)cc3)CC2)CC1 [compound 96] | 1600 nM | ++ (++ indicates an inhibition from 20% to 50%) | > 100 nM | – |
| Cc1cc(-c2nc(C(N)=O)c(Nc3ccc(N4CCC(N5CCN(C)CC5)CC4)cc3)nc2NC2CCOCC2)ccn1 [compound 108] | 190 nM | +++ (+++ indicates an inhibition greater than 50%.) | 23 nM | – |
| Cc1n[nH]cc1-c1nc(C(N)=O)c(Nc2ccc(N3CCC(N4CCN(C)CC4)CC3)cc2)nc1NC1CCOCC1 [compound 110] | 460 nM | + (+ indicates an inhibition less than or equal to 20%) | > 100 nM | – |
| Cc1c[nH]nc1-c1nc(C(N)=O)c(Nc2ccc(N3CCC(N4CCN(C)CC4)CC3)cc2)nc1NC1CCOCC1 [compound 111] | 120 nM | + (+ indicates an inhibition less than or equal to 20%) | 105 nM | – |
| CN1CCN(c2ccc(Nc3nc(NC4CCOCC4)c(-c4ccncc4)nc3C(N)=O)cc2)CC1 [compound 118] | 4100 nM | ++ (++ indicates an inhibition from 20% to 50%) | 82 nM | – |
| NC(=O)c1nc(-c2ccncc2)c(NC2CCOCC2)nc1Nc1ccccc1 [compound 119] | > 10000 nM | + (+ indicates an inhibition less than or equal to 20%) | > 100 nM | – |
| CN1CCN(Cc2ccc(Nc3nc(NC4CCOCC4)c(-c4ccncc4)nc3C(N)=O)cc2)CC1 [compound 120] | 680 nM | + (+ indicates an inhibition less than or equal to 20%) | 119 nM | – |
| CN1CCN(C2CCN(c3ccc(Nc4nc(NC5CCOCC5)c(-c5ccncc5)nc4C(N)=O)cc3F)CC2)CC1 [compound 122] | 380 nM | +++ (+++ indicates an inhibition greater than 50%.) | 40 nM | – |
| NC(=O)c1nc(-c2ccncc2)c(NC2CCOCC2)nc1Nc1ccc(CN2CCOCC2)cc1 [compound 123] | > 10000 nM | ++ (++ indicates an inhibition from 20% to 50%) | 140 nM | – |

| Structure (SMILES) | IC50 (A431 (EGFR WT) cells) | EGFR (del19/T790M/C797S) inhibition (%) (0.3 nM compound) (EGFR (del19/T790M/C797S)) | GI50 [1] | inhibition at 0.0003 µM (EGFR (L858R/T790M/C797S)) |
| --- | --- | --- | --- | --- |
| CN(C)c1ccc(Nc2nc(NC3CCOCC3)c(-c3ccncc3)nc2C(N)=O)cc1 [compound 124] | > 10000 nM | + (+ indicates an inhibition less than or equal to 20%) | > 100 nM | – |
| CN1CCN(C2CCN(c3ccc(Nc4nc(N[C@@H]5CC[C@@H](O)C5)c(-c5ccccc5)nc4C(N)=O)cc3)CC2)CC1 [compound 137, 5-(((1R,3R)-3-hydroxycyclopentyl)amino)-3-((4-(4-(4-methylpiperazin-1-yl)piperidin-1-yl)phenyl)amino)-6-phenylpyrazine-2-carboxamide] | – | ++ (++ indicates an inhibition from 20% to 50%) | – | 20 to 50% |
| Cc1cc(Nc2nc(NC3CCOCC3)c(-c3cc[nH]n3)nc2C(N)=O)ccc1N1CCC(N2CCN(C)CC2)CC1 [compound 177] | 690 nM | ++ (++ indicates an inhibition from 20% to 50%) | 19 nM | – |
| CN1CCN(C2CCN(c3ccc(Nc4nc(NC5CCOCC5)c(-c5ccnc6[nH]ccc56)nc4C(N)=O)cc3)CC2)CC1 [compound 512] | 20 nM | +++ (+++ indicates an inhibition greater than 50%.) | 6 nM | – |
| CN1CCN(C2CCN(c3ccc(Nc4nc(NC5CCOCC5)c(-c5cccc6[nH]ccc56)nc4C(N)=O)cc3F)CC2)CC1 [compound 519] | – | +++ (+++ indicates an inhibition greater than 50%.) | – | > 50% |
| CN1CCN(C2CCN(c3ccc(Nc4nc(NC5CCC5)c(-c5cccc6[nH]ccc56)nc4C(N)=O)cc3)CC2)CC1 [compound 523] | – | +++ (+++ indicates an inhibition greater than 50%.) | – | > 50% |
| CN1CCN(C2CCN(c3ccc(Nc4nc(NC5CCCC5)c(-c5cccc6[nH]ccc56)nc4C(N)=O)cc3)CC2)CC1 [compound 524] | – | +++ (+++ indicates an inhibition greater than 50%.) | – | > 50% |
| CN1CCN(C2CCN(c3ccc(Nc4nc(N[C@H]5C[C@H](O)C5)c(-c5cccc6[nH]ccc56)nc4C(N)=O)cc3)CC2)CC1 [compound 525] | 60 nM | +++ (+++ indicates an inhibition greater than 50%.) | 25 nM | – |
| CN1CCN(C2CCN(c3ccc(Nc4nc(NCC(C)(C)O)c(-c5cccc6[nH]ccc56)nc4C(N)=O)cc3)CC2)CC1 [compound 528] | 70 nM | +++ (+++ indicates an inhibition greater than 50%.) | 13 nM | – |
| CN1CCN(C2CCN(c3ccc(Nc4nc(N[C@@H]5CCC[C@@H]5O)c(-c5cccc6[nH]ccc56)nc4C(N)=O)cc3)CC2)CC1 [compound 529] | 50 nM | +++ (+++ indicates an inhibition greater than 50%.) | 18 nM | – |
| CN1CCN(C2CCN(c3ccc(Nc4nc(NC5CCC5)c(-c5cccc6[nH]ccc56)nc4C(N)=O)cc3F)CC2)CC1 [compound 532] | – | +++ (+++ indicates an inhibition greater than 50%.) | – | > 50% |
| CN1CCN(C2CCN(c3ccc(Nc4nc(N[C@H]5CC[C@H](O)CC5)c(-c5cccc6[nH]ccc56)nc4C(N)=O)cc3F)CC2)CC1 [compound 535] | – | +++ (+++ indicates an inhibition greater than 50%.) | – | > 50% |
| CN1CCN(C2CCN(c3ccc(Nc4nc(NC5CCOCC5)c(-c5cccc6[nH]cnc56)nc4C(N)=O)cc3)CC2)CC1 [compound 540] | 1200 nM | – | 48 nM | – |
| CC(C)Nc1nc(Nc2ccc(N3CCC(N4CCN(C)CC4)CC3)cc2)c(C(N)=O)nc1-c1ccncc1 [compound 611] | 360 nM | +++ (+++ indicates an inhibition greater than 50%.) | 21 nM | – |
| CC(C)Nc1nc(Nc2ccc(N3CCC(N4CCN(C)CC4)CC3)cc2)c(C(N)=O)nc1-c1cc[nH]n1 [compound 616] | 360 nM | +++ (+++ indicates an inhibition greater than 50%.) | 32 nM | – |
